The source of these data is the NIST ThermoML archive (doi:10.1021/acs.jced.5b00051).

Structures are written as SMILES. ± gives the expanded uncertainty stated by the source.

One data set in a line: molar heat capacity at constant pressure. The note with it: 307.15 K; 101.33 kPa; Liquid; Large sample (1 g) DSC.
For the compound `CCCCCCOCCOCCO` [2-(2-hexyloxyethoxy)ethanol], the “molar heat capacity at constant pressure” value stood at 425.1 ± 6.6 J/K/mol.

`COCCOCCO` [2-(2-methoxyethoxy)ethanol]: the “molar heat capacity at constant pressure” value amounted to 269.8 ± 4.2 J/K/mol.

Take `CCCOCCOCCO` [2-(2-propoxyethoxy)ethanol]: the “molar heat capacity at constant pressure” value is given as 332.8 ± 5.2 J/K/mol.

Regarding `COCCOCCOCCO` [2-[2-(2-methoxyethoxy)ethoxy]ethanol], the “molar heat capacity at constant pressure” value is reported as 358.6 ± 5.6 J/K/mol.

With `CCCCCCCCOCCOCCOCCO` [2-[2-[2-(octyloxy)ethoxy]ethoxy]ethanol], the “molar heat capacity at constant pressure” value was determined as 578.4 ± 9 J/K/mol.

Turning to `CCCCOCCO` [2-butoxyethan-1-ol], the “molar heat capacity at constant pressure” value is 277.5 ± 4.3 J/K/mol.

In the case of `CCOCCO` [2-ethoxyethan-1-ol], the “molar heat capacity at constant pressure” value is listed as 214.3 ± 3.3 J/K/mol.

Consider `CCCOCCO` [2-propoxyethanol], for which the “molar heat capacity at constant pressure” value was determined as 245.3 ± 3.8 J/K/mol.

Staying with this data set, now noted: 309.15 K; 101.33 kPa; Liquid; Large sample (1 g) DSC.
In the case of `CCCCCCOCCOCCO` [2-(2-hexyloxyethoxy)ethanol], the “molar heat capacity at constant pressure” value is on record as 426 ± 6.6 J/K/mol.

On to `COCCOCCO` [2-(2-methoxyethoxy)ethanol], for which the “molar heat capacity at constant pressure” value was 270.4 ± 4.2 J/K/mol.

In the case of `CCCOCCOCCO` [2-(2-propoxyethoxy)ethanol], the “molar heat capacity at constant pressure” value came out at 333.6 ± 5.2 J/K/mol.

`COCCOCCOCCO` [2-[2-(2-methoxyethoxy)ethoxy]ethanol]: the “molar heat capacity at constant pressure” value is 359.1 ± 5.6 J/K/mol.

Consider `CCCCCCCCOCCOCCOCCO` [2-[2-[2-(octyloxy)ethoxy]ethoxy]ethanol], for which the “molar heat capacity at constant pressure” value is recorded as 579.5 ± 9 J/K/mol.

Take `CCCCOCCO` [2-butoxyethan-1-ol]: the “molar heat capacity at constant pressure” value is given as 278.5 ± 4.3 J/K/mol.

On to `CCOCCO` [2-ethoxyethan-1-ol], for which the “molar heat capacity at constant pressure” value was 215 ± 3.3 J/K/mol.

Consider `CCCOCCO` [2-propoxyethanol], for which the “molar heat capacity at constant pressure” value was 246.2 ± 3.8 J/K/mol.

The data set is the same for the next values; noted with them: 311.15 K; 101.33 kPa; Liquid; Large sample (1 g) DSC.
On to `CCCCCCOCCOCCO` [2-(2-hexyloxyethoxy)ethanol], for which the “molar heat capacity at constant pressure” value is 427 ± 6.6 J/K/mol.

Regarding `COCCOCCO` [2-(2-methoxyethoxy)ethanol], the “molar heat capacity at constant pressure” value stood at 271 ± 4.2 J/K/mol.

With `CCCOCCOCCO` [2-(2-propoxyethoxy)ethanol], the “molar heat capacity at constant pressure” value is given as 334.4 ± 5.2 J/K/mol.

Consider `COCCOCCOCCO` [2-[2-(2-methoxyethoxy)ethoxy]ethanol], for which the “molar heat capacity at constant pressure” value amounted to 359.6 ± 5.6 J/K/mol.

As for `CCCCCCCCOCCOCCOCCO` [2-[2-[2-(octyloxy)ethoxy]ethoxy]ethanol], the “molar heat capacity at constant pressure” value was 580.6 ± 9 J/K/mol.

As for `CCCCOCCO` [2-butoxyethan-1-ol], the “molar heat capacity at constant pressure” value worked out at 279.5 ± 4.3 J/K/mol.

For `CCOCCO` [2-ethoxyethan-1-ol], the “molar heat capacity at constant pressure” value is on record as 215.7 ± 3.3 J/K/mol.

On to `CCCOCCO` [2-propoxyethanol], for which the “molar heat capacity at constant pressure” value was determined as 247.1 ± 3.8 J/K/mol.

Still in this data set, the particulars now being: 313.15 K; 101.33 kPa; Liquid; Large sample (1 g) DSC.
With `CCCCCCOCCOCCO` [2-(2-hexyloxyethoxy)ethanol], the “molar heat capacity at constant pressure” value is 428 ± 6.6 J/K/mol.

Consider `COCCOCCO` [2-(2-methoxyethoxy)ethanol], for which the “molar heat capacity at constant pressure” value stood at 271.6 ± 4.2 J/K/mol.

For the compound `CCCOCCOCCO` [2-(2-propoxyethoxy)ethanol], the “molar heat capacity at constant pressure” value is 335.2 ± 5.2 J/K/mol.

Regarding `COCCOCCOCCO` [2-[2-(2-methoxyethoxy)ethoxy]ethanol], the “molar heat capacity at constant pressure” value is 360.1 ± 5.6 J/K/mol.

In the case of `CCCCCCCCOCCOCCOCCO` [2-[2-[2-(octyloxy)ethoxy]ethoxy]ethanol], the “molar heat capacity at constant pressure” value was 581.7 ± 9 J/K/mol.

For the compound `CCCCOCCO` [2-butoxyethan-1-ol], the “molar heat capacity at constant pressure” value was 280.5 ± 4.3 J/K/mol.

Take `CCOCCO` [2-ethoxyethan-1-ol]: the “molar heat capacity at constant pressure” value came to 216.5 ± 3.4 J/K/mol.

Regarding `CCCOCCO` [2-propoxyethanol], the “molar heat capacity at constant pressure” value is 248 ± 3.8 J/K/mol.

Staying with this data set, now noted: 315.15 K; 101.33 kPa; Liquid; Large sample (1 g) DSC.
Consider `CCCCCCOCCOCCO` [2-(2-hexyloxyethoxy)ethanol], for which the “molar heat capacity at constant pressure” value came to 428.9 ± 6.6 J/K/mol.

Regarding `COCCOCCO` [2-(2-methoxyethoxy)ethanol], the “molar heat capacity at constant pressure” value came to 272.2 ± 4.2 J/K/mol.

For the compound `CCCOCCOCCO` [2-(2-propoxyethoxy)ethanol], the “molar heat capacity at constant pressure” value was 336 ± 5.2 J/K/mol.

On to `COCCOCCOCCO` [2-[2-(2-methoxyethoxy)ethoxy]ethanol], for which the “molar heat capacity at constant pressure” value is 360.6 ± 5.6 J/K/mol.

Regarding `CCCCCCCCOCCOCCOCCO` [2-[2-[2-(octyloxy)ethoxy]ethoxy]ethanol], the “molar heat capacity at constant pressure” value stood at 582.9 ± 9 J/K/mol.

Take `CCCCOCCO` [2-butoxyethan-1-ol]: the “molar heat capacity at constant pressure” value is 281.5 ± 4.4 J/K/mol.

Consider `CCOCCO` [2-ethoxyethan-1-ol], for which the “molar heat capacity at constant pressure” value is recorded as 217.2 ± 3.4 J/K/mol.

Take `CCCOCCO` [2-propoxyethanol]: the “molar heat capacity at constant pressure” value stood at 248.9 ± 3.9 J/K/mol.

The data set is the same for the next values; noted with them: 317.15 K; 101.33 kPa; Liquid; Large sample (1 g) DSC.
Regarding `CCCCCCOCCOCCO` [2-(2-hexyloxyethoxy)ethanol], the “molar heat capacity at constant pressure” value worked out at 429.9 ± 6.7 J/K/mol.

Consider `COCCOCCO` [2-(2-methoxyethoxy)ethanol], for which the “molar heat capacity at constant pressure” value is on record as 272.8 ± 4.2 J/K/mol.

Turning to `CCCOCCOCCO` [2-(2-propoxyethoxy)ethanol], the “molar heat capacity at constant pressure” value turned out to be 336.9 ± 5.2 J/K/mol.

Regarding `COCCOCCOCCO` [2-[2-(2-methoxyethoxy)ethoxy]ethanol], the “molar heat capacity at constant pressure” value stood at 361.2 ± 5.6 J/K/mol.

On to `CCCCCCCCOCCOCCOCCO` [2-[2-[2-(octyloxy)ethoxy]ethoxy]ethanol], for which the “molar heat capacity at constant pressure” value worked out at 584.1 ± 9 J/K/mol.

With `CCCCOCCO` [2-butoxyethan-1-ol], the “molar heat capacity at constant pressure” value is 282.5 ± 4.4 J/K/mol.

Take `CCOCCO` [2-ethoxyethan-1-ol]: the “molar heat capacity at constant pressure” value worked out at 218 ± 3.4 J/K/mol.

With `CCCOCCO` [2-propoxyethanol], the “molar heat capacity at constant pressure” value came out at 249.8 ± 3.9 J/K/mol.

The same data set, now with this note: 319.15 K; 101.33 kPa; Liquid; Large sample (1 g) DSC.
For the compound `CCCCCCOCCOCCO` [2-(2-hexyloxyethoxy)ethanol], the “molar heat capacity at constant pressure” value is 430.9 ± 6.7 J/K/mol.

For the compound `COCCOCCO` [2-(2-methoxyethoxy)ethanol], the “molar heat capacity at constant pressure” value came to 273.4 ± 4.2 J/K/mol.

Consider `CCCOCCOCCO` [2-(2-propoxyethoxy)ethanol], for which the “molar heat capacity at constant pressure” value is given as 337.7 ± 5.2 J/K/mol.

On to `COCCOCCOCCO` [2-[2-(2-methoxyethoxy)ethoxy]ethanol], for which the “molar heat capacity at constant pressure” value worked out at 361.7 ± 5.6 J/K/mol.

Turning to `CCCCCCCCOCCOCCOCCO` [2-[2-[2-(octyloxy)ethoxy]ethoxy]ethanol], the “molar heat capacity at constant pressure” value is reported as 585.3 ± 9.1 J/K/mol.

For the compound `CCCCOCCO` [2-butoxyethan-1-ol], the “molar heat capacity at constant pressure” value worked out at 283.5 ± 4.4 J/K/mol.

In the case of `CCOCCO` [2-ethoxyethan-1-ol], the “molar heat capacity at constant pressure” value is given as 218.7 ± 3.4 J/K/mol.

On to `CCCOCCO` [2-propoxyethanol], for which the “molar heat capacity at constant pressure” value is listed as 250.7 ± 3.9 J/K/mol.

Still in this data set, the particulars now being: 321.15 K; 101.33 kPa; Liquid; Large sample (1 g) DSC.
As for `CCCCCCOCCOCCO` [2-(2-hexyloxyethoxy)ethanol], the “molar heat capacity at constant pressure” value amounted to 431.9 ± 6.7 J/K/mol.

Regarding `COCCOCCO` [2-(2-methoxyethoxy)ethanol], the “molar heat capacity at constant pressure” value is recorded as 274 ± 4.2 J/K/mol.

For the compound `CCCOCCOCCO` [2-(2-propoxyethoxy)ethanol], the “molar heat capacity at constant pressure” value was 338.5 ± 5.2 J/K/mol.

As for `COCCOCCOCCO` [2-[2-(2-methoxyethoxy)ethoxy]ethanol], the “molar heat capacity at constant pressure” value amounted to 362.2 ± 5.6 J/K/mol.

On to `CCCCCCCCOCCOCCOCCO` [2-[2-[2-(octyloxy)ethoxy]ethoxy]ethanol], for which the “molar heat capacity at constant pressure” value is given as 586.5 ± 9.1 J/K/mol.

On to `CCCCOCCO` [2-butoxyethan-1-ol], for which the “molar heat capacity at constant pressure” value came to 284.5 ± 4.4 J/K/mol.

In the case of `CCOCCO` [2-ethoxyethan-1-ol], the “molar heat capacity at constant pressure” value is 219.5 ± 3.4 J/K/mol.

Turning to `CCCOCCO` [2-propoxyethanol], the “molar heat capacity at constant pressure” value came out at 251.6 ± 3.9 J/K/mol.

Still in this data set, the particulars now being: 323.15 K; 101.33 kPa; Liquid; Large sample (1 g) DSC.
For `CCCCCCOCCOCCO` [2-(2-hexyloxyethoxy)ethanol], the “molar heat capacity at constant pressure” value is reported as 432.9 ± 6.7 J/K/mol.

Take `COCCOCCO` [2-(2-methoxyethoxy)ethanol]: the “molar heat capacity at constant pressure” value was found to be 274.7 ± 4.3 J/K/mol.

In the case of `CCCOCCOCCO` [2-(2-propoxyethoxy)ethanol], the “molar heat capacity at constant pressure” value was 339.4 ± 5.3 J/K/mol.

In the case of `COCCOCCOCCO` [2-[2-(2-methoxyethoxy)ethoxy]ethanol], the “molar heat capacity at constant pressure” value was 362.8 ± 5.6 J/K/mol.
